This note sets out measurements from US8133889B2, “Dihydroindolone compounds, a process for their preparation and pharmaceutical compositions containing them” (Les Laboratoires Servier, priority 2009, dated 2012).

The structures appear in SMILES notation.

Data set [1] deals with A549 (human non-small cell lung carcinoma) cells. Briefly: Inhibition of the migration of A549 cells: scratch assay. The data set is classed as cell-based. The following applies: at 30 nM; A549 cells exposed 38 hours; 40 ng/ml HGF. The method, then: Cells from the A549 (human non-small cell lung carcinoma) line are cultured in an incubator at 37° C. in the presence of 5% CO2 in RPMI 1640 medium containing 10% foetal calf serum, 40 ng/ml HGF (hepatocyte growth factor), 2 mM glutamine, 50 units/ml penicillin, 50 μg/ml streptomycin and 10 mM Hepes buffer, pH=7.4. For the migration test, the A549 cells are transferred to 96-well plates (50,000 cells per well) and cultured for 24 hours to obtain cells at confluence. A one-millimetre thick scratch is made in the cell layer, and the cells are exposed to the compounds under test for 38 hours. The cell cultures are then photographed, and filling of the scratch as a result of migration of the cells is assessed.

Data set [2] deals with human glioblastoma tumour U87-MG. The data set can be described thus: Inhibition of growth of the tumour U87-MG grafted subcutaneously in mice. The data set is classed as in vivo, female Nude BalbC mouse. The following applies: oral route; for inhibition of growth: Day 35. The method, then:
The human glioblastoma tumour U87-MG was grafted subcutaneously into the female Nude BalbC mouse in an amount of 10^6 cells. The tumours were then randomised into groups of eight mice once the tumour volume had reached 200 mm^3. Daily treatment (6.25, 12.5, 25 and 50 mg/kg) was administered by the oral route (vehicle=water) over a period of 17 days except for the weekends. The tumour volumes were measured twice a week using a sliding calliper. The inhibition of growth found after administration of the compounds according to the invention is statistically significant (two-factor ANOVA, with measurements repeated over time, followed by a DUNETT's test) at all doses tested between Day 21 and Day 35 (date for ethical sacrifice of the mice in the control group in conformity with ethical rules). […] Regression of the order of 70% is observed at a dose of 50 mg/kg.

As usually defined, the melting point is the temperature, or range, at which the solid turns liquid. For the molecule `Cl.O=C1Nc2ccc(CN3C(=O)[C@H]4C[C@H]4C3=O)cc2C1=Cc1cc(CN2CCCCC2)c[nH]1`, the melting point turned out to be 198 °C.
In turn, `CC(=C1C(=O)Nc2ccc(CN3CCOC3=O)cc21)c1cc(CN2CCOCC2)c[nH]1.Cl` had a melting point of 212 °C.
The term inhibition of growth denotes the change of the read-out against control, counted positive when it falls. On to `Cl.O=C1Nc2ccc(CN3C(=O)CSC3=O)cc2C1=Cc1cc(CN2CCOCC2)c[nH]1` [Example 1, 3-[(3-{[4-(4-Morpholinylmethyl)-1H-pyrrol-2-yl]methylene}-2-oxo-2,3-dihydro-1H-indol-5-yl)methyl]-1,3-thiazolidine-2,4-dione hydrochloride], for which the “inhibition of migration (filling of the scratch)” value in data set [1] is reported as “total inhibition”. Moreover, the inhibition of growth came out at 102% in data set [2] (6.25 mg/kg daily), 84% in data set [2] (12.5 mg/kg daily) and 98% in data set [2] (25 mg/kg daily). The same molecule showed a regression in data set [2] (50 mg/kg daily) of around 70%.
`Cl.O=C1Nc2ccc(CN3CCOC3=O)cc2C1=Cc1cc(CN2CCCC2)c[nH]1` came in with a melting point of 204 °C.
In the case of `Cl.O=C1Nc2ccc(CN3CCSC3=O)cc2C1=Cc1cc(CN2CCOCC2)c[nH]1`, the melting point was 244 °C.
Take `CC(=C1C(=O)Nc2ccc(CN3C(=O)CSC3=O)cc21)c1cc(CN2CCOCC2)c[nH]1.Cl`: the melting point came to 225 °C.
In the case of `Cl.O=C1Nc2ccc(CN3CCOC3=O)cc2C1=Cc1c[nH]cc1CN1CCOCC1`, the melting point is 210 °C.
As for `Cl.O=C1Nc2ccc(CN3CCOC3=O)cc2C1=Cc1cc(CN2C[C@H]3C[C@H]3C2)c[nH]1`, the melting point is 179 °C.
`CC(=C1C(=O)Nc2ccc(CN3C(=O)COC3=O)cc21)c1cc(CN2CCOCC2)c[nH]1.Cl` came in with a melting point of 220 °C.
As to `Cl.O=C1Nc2ccc(CCN3C(=O)CSC3=O)cc2C1=Cc1cc(CN2CCOCC2)c[nH]1`, the melting point is 289 °C (dec.).
The molecule `Cl.O=C1Nc2ccc(CN3CCOC3=O)cc2C1=Cc1ccc(CN2CCOCC2)[nH]1` returned a melting point of 195 °C.
Regarding `CC1(C)OC(=O)N(Cc2ccc3c(c2)C(=Cc2cc(CN4CCOCC4)c[nH]2)C(=O)N3)C1=O.Cl`, the melting point is 191 °C.
The molecule `Cl.O=C1Nc2ccc(CN3C(=O)CCC3=O)cc2C1=Cc1cc(CN2CCOCC2)c[nH]1` had a melting point of 212 °C.
`Cl.O=C1Nc2ccc(CN3C(=O)COC3=O)cc2C1=Cc1cc(CN2CCOCC2)c[nH]1` displayed a melting point of 216 °C.
On the same count and under the same terms, to `O=C1Nc2ccc(CN3CCOC3=O)cc2C1=Cc1[nH]ccc1CN1CCOCC1` [Example 21, 3-(3-Morpholin-4-ylmethyl-1H-pyrrol-2-ylmethylene)-5-(2-oxo-oxazolidin-3-ylmethyl)-1,3-dihydro-indol-2-one] belongs 192 °C; to `Cl.O=C1Nc2ccc(CN3CCOC3=O)cc2C1=Cc1cc(CN2CCCCC2)c[nH]1`, 256 °C; to `CCN(CC)Cc1c[nH]c(C=C2C(=O)Nc3ccc(CN4CCOC4=O)cc32)c1.Cl`, 192 °C.
In turn, `Cc1[nH]c(C=C2C(=O)Nc3ccc(CN4CCOC4=O)cc32)c(C)c1CN1C[C@H]2CCC[C@H]2C1.Cl` returned a melting point of 204 °C.
